# Measured values taken from patent US20230150995A1, “HETEROARYL-METHYL SUBSTITUTED TRIAZOLES” (Hoffmann-La Roche Inc., priority 2020, published 2023).
# Biological target: T1, human V1a receptor (Homo sapiens, UniProt P37288)
# T1 construct: expressed in transfected cells; host or cells: HEK293 cells, transiently transfected; cell membranes
# Assay: human V1a receptor binding study (3H-Vasopressin SPA, HEK293 membranes)
# Details: membranes of HEK293 cells transiently transfected with human V1a receptor, Ki by Cheng-Prusoff, read-out: pKi (hV1a) (converted)
# Experimental: The human V1a receptor was cloned by RT-PCR from total human liver RNA. The coding sequence was subcloned in an expression vector after sequencing to confirm the identity of the amplified sequence. […] Cell membranes were prepared from HEK293 cells transiently transfected with the expression vector and grown in 20 liter fermenters with the following protocol.
# 50 g of cells are re-suspended in 30 ml freshly prepared ice cold Lysis buffer (50 mM HEPES, 1 mM EDTA, 10 mM MgCl2 adjusted to pH=7.4+complete cocktail of protease inhibitor (Roche Diagnostics)). Homogenized with Polytron for 1 min and sonicated on ice for 2× 2 minutes at 80% intensity (Vibracell sonicator). The preparation is centrifuged 20 min at 500 g at 4° C., the pellet is discarded and the supernatant centrifuged 1 hour at 43′000 g at 4° C. (19′000 rpm). The pellet is re-suspended in 12.5 ml Lysis buffer+12.5 ml Sucrose 20% and homogenized using a Polytron for 1-2 min. The protein concentration is determined by the Bradford method and aliquots are stored at −80° C. until use. For binding studies 60 mg Yttrium silicate SPA beads (Amersham) are mixed with an aliquot of membrane in binding buffer (50 mM Tris, 120 mM NaCl, 5 mM KCl, 2 mM CaCl2, 10 mM MgCl2) for 15 minutes with mixing. 50 μl of bead/membrane mixture is then added to each well of a 96 well plate, followed by 50 μl of 4 nM 3H-Vasopressin (American Radiolabeled Chemicals). For total binding measurement 100 μl of binding buffer are added to the respective wells, for non-specific binding 100 μl of […] cold vasopressin and for compound testing 100 μl of a serial dilution of each compound in 2% DMSO. The plate is incubated 1 h at room temperature, centrifuged […] at 1000 g and counted on a Packard Top-Count. Non-specific binding counts are subtracted from each well and data is normalized to the maximum specific binding set at 100%. To calculate an IC 50 the curve is fitted using a non-linear regression model (XLfit) and the Ki is calculated using the Cheng-Prussoff equation.
# T1 sequence (P37288 whole entry): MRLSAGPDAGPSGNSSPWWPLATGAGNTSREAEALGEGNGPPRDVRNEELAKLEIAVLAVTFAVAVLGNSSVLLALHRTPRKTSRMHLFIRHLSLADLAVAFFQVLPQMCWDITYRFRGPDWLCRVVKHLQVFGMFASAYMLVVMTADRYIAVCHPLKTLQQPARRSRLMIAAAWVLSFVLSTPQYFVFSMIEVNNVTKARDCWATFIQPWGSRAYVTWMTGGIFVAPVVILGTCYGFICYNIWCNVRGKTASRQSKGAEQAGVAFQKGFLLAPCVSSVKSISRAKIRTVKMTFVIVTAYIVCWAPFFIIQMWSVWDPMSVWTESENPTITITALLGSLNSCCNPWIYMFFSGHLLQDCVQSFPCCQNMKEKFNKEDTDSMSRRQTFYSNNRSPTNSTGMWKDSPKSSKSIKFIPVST
row,Compound,Ki [nM]
1,"Clc1ccc(-n2c(Cn3cnnn3)nnc2[C@H]2CC[C@H](Oc3ccccn3)CC2)cc1 [Example 10, trans-2-[4-[4-(4-Chlorophenyl)-5-(tetrazol-1-ylmethyl)-1,2,4-triazol-3-yl]cyclohexyl]oxypyridine]",9.12
2,"Clc1ccc(-n2c(Cn3cccn3)nnc2[C@H]2CC[C@H](Oc3ccccn3)CC2)cc1 [Example 4, trans-2-[4-[4-(4-Chlorophenyl)-5-(pyrazol-1-ylmethyl)-1,2,4-triazol-3-yl]cyclohexyl]oxypyridine]",0.347
3,"Clc1ccc(-n2c(Cn3ccnc3)nnc2[C@H]2CC[C@H](Oc3ccccn3)CC2)cc1 [Example 8, trans-2-[4-[4-(4-Chlorophenyl)-5-(imidazol-1-ylmethyl)-1,2,4-triazol-3-yl]cyclohexyl]oxypyridine]",3.63
4,"Clc1ccc(-n2c(Cn3nccn3)nnc2[C@H]2CC[C@H](Oc3ccccn3)CC2)cc1 [Example 5, trans-2-[4-[4-(4-Chlorophenyl)-5-(triazol-2-ylmethyl)-1,2,4-triazol-3-yl]cyclohexyl]oxypyridine]",0.151
5,"Clc1ccc(-n2c(Cn3nccn3)nnc2[C@H]2CC[C@@H](Oc3ccccn3)CC2)cc1 [Example 6, cis-2-[4-[4-(4-Chlorophenyl)-5-(triazol-2-ylmethyl)-1,2,4-triazol-3-yl]cyclohexyl]oxypyridine]",0.871
6,"Clc1ccc(-n2c(Cn3ccnn3)nnc2[C@H]2CC[C@H](Oc3ccccn3)CC2)cc1 [Example 7, trans-2-[4-[4-(4-Chlorophenyl)-5-(triazol-1-ylmethyl)-1,2,4-triazol-3-yl]cyclohexyl]oxypyridine]",3.63

# Results, then the molecule that gave them:
row,Ki [nM],Compound
1,0.229,"Clc1ccc(-n2c(Cc3ccno3)nnc2[C@H]2CC[C@H](Oc3ccccn3)CC2)cc1 [Example 3, trans-5-[[4-(4-Chlorophenyl)-5-(4-pyridin-2-yloxycyclohexyl)-1,2,4-triazol-3-yl]methyl]-1,2-oxazole]"
2,0.229,"Clc1ccc(-n2c(Cc3ccon3)nnc2[C@H]2CC[C@H](Oc3ccccn3)CC2)cc1 [Example 2, trans-3-[[4-(4-Chlorophenyl)-5-(4-pyridin-2-yloxycyclohexyl)-1,2,4-triazol-3-yl]methyl]-1,2-oxazole]"
3,0.17,"Cc1cc(Cc2nnc([C@H]3CC[C@H](Oc4ccccn4)CC3)n2-c2ccc(Cl)cc2)no1 [Example 1, trans-3-[[4-(4-Chlorophenyl)-5-(4-pyridin-2-yloxycyclohexyl)-1,2,4-triazol-3-yl]methyl]-5-methyl-1,2-oxazole]"
4,7.94,"Clc1ccc(-n2c(Cn3cncn3)nnc2[C@H]2CC[C@H](Oc3ccccn3)CC2)cc1 [Example 9, trans-2-[4-[4-(4-Chlorophenyl)-5-(1,2,4-triazol-1-ylmethyl)-1,2,4-triazol-3-yl]cyclohexyl]oxypyridine]"
